We go through 32 molecules from the METLIN SMRT retention time set (Domingo-Almenara et al. 2019).

The series can be described thus: gradient 5% acetonitrile 3 min, to 50% in 2 min, to 85% in 15 min, held 3 min, 100 µL/min. The following applies: column: Zorbax Extend-C18 2.1 x 50 mm; eluents: water / acetonitrile, 0.1% formic acid. In outline:
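Using water and acetonitrile that each contained 0.1% formic acid, mixtures of ~100 pure standards were separated at 100 μL/min on a Zorbax Extend-C18 column (2.1 × 50 mm, 1.8 μm). The HPLC fed a quadrupole time-of-flight mass spectrometer working in positive and negative ionization mode, with dead and dwell volumes of 40 μL and 900 μL. Data were acquired over 3 months. Retention time was read from computationally picked adduct peaks after manual inspection of each.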
`CCCNC(=O)N1[C@H]2CC[C@@H]1c1cnc(-c3ccc(F)cc3)nc1C2` gave an RP-LC retention time of 829 s.

`Cc1cc(C2CCCN2C(=O)Cc2ccc(F)cc2Cl)on1` (configuration not stated) came in with an RP-LC retention time of 851 s.

For `Cc1nn(C(C)C(=O)NCCN(C)Cc2ccccc2)c(=O)c2c(C)n(-c3ccccc3)nc12` (configuration not stated), the RP-LC retention time was 686 s.

For the molecule `CC(Cc1ccco1)NC(=O)c1ccc2c(c1)nc1n2CCCCC1` (configuration not stated), the RP-LC retention time was determined as 620 s.

`COc1ccc(N2CCCn3c2nc2c3c(=O)n(CC(=O)O)c(=O)n2C)cc1` gave an RP-LC retention time of 660 s.

In turn, `COc1ccc(C(=O)N2CCN(c3cc(-c4cccs4)[nH]n3)CC2)cc1` had an RP-LC retention time of 749 s.

`COc1ccc(Cl)cc1NS(=O)(=O)c1cc2c(s1)CCN(C(=O)C1CC1)C2`: the RP-LC retention time turned out to be 883 s.

Molecule `COc1ccc(S(=O)(=O)N2CCCC(C(N)=O)C2)cc1Cl` (configuration not stated) gave an RP-LC retention time of 701 s.

As to `CCCN1CCN(C(=O)c2nc(N3CCSCC3)c3cnn(C)c3n2)CC1`, the RP-LC retention time was 576 s.

The molecule `CCc1ccc(NC(=O)c2cn(C)nc2S(=O)(=O)N2CCSCC2)cc1` displayed an RP-LC retention time of 1040 s.

In turn, `Cc1ccc(-n2c(N3CCCC(C(=O)Nc4ccc(F)c(C)c4)C3)nc3ccsc3c2=O)cc1` (configuration not stated) came in with an RP-LC retention time of 1040 s.

For the molecule `O=C(Nc1ccc(F)c(F)c1)C1CCN(c2nccnc2Sc2ccccc2)CC1`, the RP-LC retention time was determined as 1110 s.

The molecule `COc1cc(Br)cc(CC2C(=O)Nc3ccccc32)c1OC` (configuration not stated) came in with an RP-LC retention time of 932 s.

Molecule `Cc1ccc(NC(=O)N2CCc3nc(-c4ccc(F)cc4)ncc3C2)c(C)c1` yielded an RP-LC retention time of 979 s.

Consider `COc1ccc2[nH]cc(CCN3CC(C(=O)Nc4ccccc4)CC3=O)c2c1` (configuration not stated), for which the RP-LC retention time turned out to be 748 s.

`Cc1cc(C(=O)NCc2ccc(N(C)C)cc2)c2c(=O)n(C)c(=O)n(C)c2n1` had an RP-LC retention time of 578 s.

The molecule `CN(Cc1ccccc1)C(=O)Cn1c(=O)c2cnc(-c3ccccc3)nc2n(C)c1=O` displayed an RP-LC retention time of 1020 s.

With `O=C(Cn1cccc1-c1nc(-c2ccc3c(c2)OCO3)no1)Nc1ccc(F)cc1`, the RP-LC retention time is 994 s.

Regarding `COc1ccccc1Oc1c(NS(=O)(=O)c2ccc(C(C)(C)C)cc2)nc(-c2ncccn2)nc1OCCO`, the RP-LC retention time came to 939 s.

`COc1cc(NC(=O)NCc2cccs2)ccc1N1CCCCC1=O` came in with an RP-LC retention time of 645 s.

The molecule `CC1CCCN(CC2CCN(S(=O)(=O)Cc3ccccc3F)CC2)C1` (configuration not stated) displayed an RP-LC retention time of 650 s.

Molecule `COc1ccc(CNC(=O)C(=O)NCC(c2ccc3c(c2)OCO3)N2CCOCC2)cc1` (configuration not stated) gave an RP-LC retention time of 643 s.

`O=C(Nc1cc(F)ccc1Cl)c1cnc(-c2ccccc2)nc1-c1ccncc1` had an RP-LC retention time of 1000 s.

`CC1(C(=O)NCc2ccc(F)cc2)CN(S(C)(=O)=O)CC(=O)N1Cc1ccccc1Cl` (configuration not stated) displayed an RP-LC retention time of 848 s.

`NC(=O)COc1cc(-c2cccc(Cl)c2)nc2ccc(NC(=O)C3CC3)cc12` came in with an RP-LC retention time of 667 s.

With `Cn1cc(C2=CCN(S(=O)(=O)c3ccc(C(C)(C)C)cc3)CC2)c2cccnc21`, the RP-LC retention time stood at 1230 s.

The molecule `Cc1c(Cl)cccc1NC(=O)CC1COc2ccccc2NC1=O` (configuration not stated) registered an RP-LC retention time of 756 s.

In turn, `COc1cc(NC(=O)CN2CCN(c3ccccn3)CC2)cc(OC)c1` displayed an RP-LC retention time of 587 s.

As for `CCOC(=O)c1noc2nc(C)nc(N3CCN(c4ccccc4F)CC3)c12`, the RP-LC retention time was 1070 s.

Take `Cc1ccc(S(=O)(=O)N2CCC(c3nc(C(=O)N(C)C)c(C)o3)CC2)cc1`: the RP-LC retention time was found to be 818 s.

Turning to `CCSc1nnc(NC(=O)CSc2nnnn2-c2ccccc2CC)s1`, the RP-LC retention time stood at 887 s.

`Cc1noc(C)c1S(=O)(=O)N1CCC2(CCC(CN(C)Cc3ccncc3)O2)CC1` (configuration not stated) displayed an RP-LC retention time of 604 s.
